The values that follow come from BindingDB's records for doi:10.1021/jm00392a014 (1987).

Chain of Cytosol aminopeptidase (Sus scrofa) (P28839 whole entry, looked up): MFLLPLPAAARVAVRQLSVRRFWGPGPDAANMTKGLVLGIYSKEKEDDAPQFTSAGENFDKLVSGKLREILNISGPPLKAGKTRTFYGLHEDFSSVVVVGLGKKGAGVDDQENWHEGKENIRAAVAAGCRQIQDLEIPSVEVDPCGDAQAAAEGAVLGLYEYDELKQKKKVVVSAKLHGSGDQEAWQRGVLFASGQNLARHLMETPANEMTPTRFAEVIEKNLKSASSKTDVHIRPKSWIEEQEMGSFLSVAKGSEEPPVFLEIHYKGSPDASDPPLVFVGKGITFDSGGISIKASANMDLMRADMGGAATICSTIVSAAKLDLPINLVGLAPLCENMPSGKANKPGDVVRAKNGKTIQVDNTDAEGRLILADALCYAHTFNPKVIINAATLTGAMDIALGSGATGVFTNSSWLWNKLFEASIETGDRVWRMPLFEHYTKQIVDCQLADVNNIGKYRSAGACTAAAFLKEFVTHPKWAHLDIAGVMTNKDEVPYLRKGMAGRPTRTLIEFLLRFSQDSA

Biological target in the first assay: not listed separately
As to the kind of experiment: Compound was tested for inhibition of Leucine aminopeptidase isolated from porcine kidney; Inhibitor exhibits slow-binding behavior(k on <=1000Me-1Se-1).
Usually Ki stands for the equilibrium dissociation constant of an inhibitor or competing ligand from its target. Read a low Ki as higher affinity. In the case of `CCCCCCCC(N)P(=O)(O)O` (centres undefined) [1-Ammonium-octane-1-phosphonic acid anion], the Ki is 0.47 µM.

With `CC(C)C(N)P(=O)(O)O` (centres undefined) [1-amino-2-methylpropylphosphonic acid], the Ki came to 1.2 µM.

`CCC(N)P(=O)(O)O` (centres undefined) [1-aminopropylphosphonic acid] registered an inhibition constant (Ki) of 3.6 µM.

The next assay concerns the target Cytosol aminopeptidase (Sus scrofa) (UniProt P28839). Described as above.
Regarding `C[C@H](N)P(=O)(O)O` [1-Ammonium-ethanephosphonic acid anion], the Ki was found to be 240 µM.

The molecule `CC(C)CC(N)P(N)(=O)C(=O)N[C@@H](CC(C)C)C(=O)O` (stereo partly drawn) [1-[amino({[(1S)-1-carboxylateanion-3-methylbutyl]amino}carbonyl)phosphoryl]-3-methylbutan-1-aminium] had a Ki of 40 µM.

As for `CCCCCC(N)P(=O)(O)O` (centres undefined) [1-aminohexylphosphonic acid], the Ki is 1 µM.

The molecule `COP(=O)(C(=O)N[C@@H](CC(C)C)C(=O)O)C(N)CC(C)C` (stereo partly drawn) [2-(1-Ammonium-3-methylbutylmethoxyphosphorylcarbonylamino)-4-methyl-(2S)-pentanoate] yielded a Ki of 1650 µM.

Take `CC(C)CCN` [3-Methyl-butylamine]: the Ki was greater than 50000 µM.

Regarding `COP(=O)(O)C(N)Cc1ccccc1` (centres undefined) [(1-Ammonium-2-phenyl-ethyl)-phosphonic acid monomethyl ester], the Ki was 43 µM.

Regarding `COP(=O)(O)C(N)CC(C)C` (centres undefined) [(1-Ammonium-3-methyl-butyl)-phosphonic acid monomethyl ester], the Ki was 320 µM.

The molecule `CC(C)CCP(=O)(O)O` [(3-Methyl-butyl)-phosphonic acid] displayed a Ki of 775 µM.

As for `N[C@H](Cc1ccccc1)P(=O)(O)O` [(S)-1-Ammonium-2-phenyl-ethanephosphonic acid anion], the Ki was determined as 15.4 µM.

Take `NCP(=O)(O)O` [Ammonium-methanephosphonic acid anion]: affinity was put at a Ki of 1040 µM.

For the molecule `N[C@@H](Cc1ccccc1)P(=O)(O)O` [[(1R)-1-amino-2-phenylethyl]phosphonic acid], the Ki stood at 0.42 µM.
